The text below walks through data of ChEMBL document CHEMBL2384962, “Design, synthesis and evaluation of some new 4-aminopyridine derivatives in learning and memory” (Bioorg Med Chem Lett, 2013).

pIC50, pKi: −log10 of the molar value. Active and inactive are the calls of the source. No cut-off for these calls is given here.

One may read the pIC50 as the negative decadic logarithm of the IC50, by convention in mol/L. The low end stands for a large IC50, the high end for a small IC50. Broadly, the pKi is the negative decadic logarithm of the Ki, by convention in mol/L. Lower therefore signals a large Ki.

For data set [1], the system named is Rattus norvegicus. Briefly: Antiamnesic activity in po dosed Charles Foster albino rat assessed as reduction in scopolamine-induced increase in transfer latency after 7 to 8 days by elevated plus maze task. The class given is functional, organism-based.
Data set [2] has as its system Rattus norvegicus. Briefly: In vivo inhibition of AChE-mediated substrate hydrolysis in Charles Foster albino rat hypothalamus at 5 to 10 mg/kg, po administered for 8 days measured 1 hr post last dose. The class given is functional, organism-based. The arrangement: dose 5 to 10 mg/kg, route oral.
The subject of data set [3] is Rattus norvegicus. Briefly: Acute toxicity in Charles Foster albino rat assessed as mortality up to 100 mg/kg, po after 48 hrs. As to conditions: in vivo. The arrangement: dose 100 mg/kg, route oral. The class given is organism-based.
Data set [4] concerns Rattus norvegicus. The data set can be described thus: Acute toxicity in Charles Foster albino rat assessed as tremors up to 100 mg/kg, po after 48 hrs. The class given is organism-based. The arrangement: dose 100 mg/kg, route oral. As to conditions: in vivo.
Data set [5] relates to Rattus norvegicus. Briefly: In vivo inhibition of AChE-mediated substrate hydrolysis in Charles Foster albino rat hippocampus at 5 to 10 mg/kg, po administered for 8 days measured 1 hr post last dose. In kind it is functional, organism-based. The arrangement: dose 5 to 10 mg/kg, route oral.
Data set [6] has as its system Rattus norvegicus. Briefly: Acute toxicity in Charles Foster albino rat assessed as lacrimation up to 100 mg/kg, po after 48 hrs. The class given is organism-based. The arrangement: dose 100 mg/kg, route oral. To be noted: in vivo.
Data set [7] concerns Rattus norvegicus. Briefly: Antiamnesic activity in Charles Foster albino rat assessed as reduction in scopolamine-induced increase in transfer latency at 10 mg/kg, po administered for 8 days measured 1 hr post last dose by elevated plus maze task (reference value: 62.50 +/- 0.76 s). The class given is functional.
Data set [8] concerns Rattus norvegicus. Briefly: Acute toxicity in Charles Foster albino rat assessed as convulsions up to 100 mg/kg, po after 48 hrs. In kind it is organism-based. The arrangement: dose 100 mg/kg, route oral. As to conditions: in vivo.
For data set [9], the system named is Rattus norvegicus. The data set can be described thus: Acute toxicity in Charles Foster albino rat assessed as blood pressure up to 100 mg/kg, po after 48 hrs. The class given is organism-based. The arrangement: dose 100 mg/kg, route oral. As to conditions: in vivo.
Data set [10] deals with Rattus norvegicus. The data set can be described thus: Acute toxicity in Charles Foster albino rat assessed as heart rate up to 100 mg/kg, po after 48 hrs. In kind it is organism-based. The arrangement: dose 100 mg/kg, route oral. To be noted: in vivo.
In data set [11] the target is T1, Cholinesterase (Homo sapiens, UniProt P06276). Briefly: Inhibition of human serum BChE using butyrylthiolcholine iodide as substrate incubated for 20 mins prior to substrate addition by Ellman's method. A general note: DTNB colorimetry detects thiols as they appear.
T1 sequence (P06276 whole entry): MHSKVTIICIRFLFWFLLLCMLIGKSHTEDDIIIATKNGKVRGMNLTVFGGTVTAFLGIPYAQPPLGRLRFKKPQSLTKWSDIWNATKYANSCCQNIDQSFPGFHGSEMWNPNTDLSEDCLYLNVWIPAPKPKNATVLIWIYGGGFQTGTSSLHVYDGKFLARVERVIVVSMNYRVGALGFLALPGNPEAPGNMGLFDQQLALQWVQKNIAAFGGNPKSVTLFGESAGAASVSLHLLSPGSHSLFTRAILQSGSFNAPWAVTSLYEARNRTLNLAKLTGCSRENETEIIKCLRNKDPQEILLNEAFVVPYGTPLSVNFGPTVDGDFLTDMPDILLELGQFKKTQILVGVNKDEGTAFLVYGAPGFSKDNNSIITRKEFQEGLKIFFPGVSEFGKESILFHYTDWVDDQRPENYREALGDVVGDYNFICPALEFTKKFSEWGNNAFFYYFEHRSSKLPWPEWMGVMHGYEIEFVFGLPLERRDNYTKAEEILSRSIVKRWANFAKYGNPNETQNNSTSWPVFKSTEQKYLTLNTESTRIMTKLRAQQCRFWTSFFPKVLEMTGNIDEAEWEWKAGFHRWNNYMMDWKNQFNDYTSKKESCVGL
In data set [12] the test system is Rattus norvegicus. Briefly: Acute toxicity in Charles Foster albino rat assessed as diarrhoea up to 100 mg/kg, po after 48 hrs. In kind it is organism-based. To be noted: in vivo. The arrangement: dose 100 mg/kg, route oral.
Data set [13] has as its system Rattus norvegicus. Briefly: Acute toxicity in Charles Foster albino rat assessed as sleep up to 100 mg/kg, po after 48 hrs. The arrangement: dose 100 mg/kg, route oral. To be noted: in vivo. In kind it is organism-based.
Data set [14] in a line: Selectivity ratio of IC50 for human serum BChE to IC50 for electric eel AChE.
In data set [15] the test system is Rattus norvegicus. The data set can be described thus: Antiamnesic activity in Charles Foster albino rat assessed as reduction in scopolamine-induced increase in transfer latency at 5 mg/kg, po administered for 8 days measured 1 hr post last dose by elevated plus maze task (reference value: 62.50 +/- 0.76 s). The class given is functional.
Data set [16] addresses T2, Acetylcholinesterase (Electrophorus electricus, UniProt O42275). The data set can be described thus: Inhibition of electric eel AChE using […] as substrate incubated for 20 mins prior to substrate addition by Ellman method.
In data set [17] the test system is Rattus norvegicus. Briefly: Antiamnesic activity in Charles Foster albino rat assessed as reduction in scopolamine-induced increase in transfer latency at 5 mg/kg, po administered for 7 days measured 1 hr post last dose by elevated plus maze task (reference value: 67.67 +/- 0.88 s). In kind it is functional.
In data set [18] the test system is Rattus norvegicus. The data set can be described thus: Antiamnesic activity in Charles Foster albino rat assessed as reduction in scopolamine-induced increase in transfer latency at 10 mg/kg, po administered for 7 days measured 1 hr post last dose by elevated plus maze task (reference value: 67.67 +/- 0.88 s). The class given is functional.
Data set [19] concerns Rattus norvegicus. Briefly: Acute toxicity in Charles Foster albino rat assessed as salivation up to 100 mg/kg, po after 48 hrs. The arrangement: dose 100 mg/kg, route oral. To be noted: in vivo. The class given is organism-based.
The subject of data set [20] is Rattus norvegicus. Briefly: Acute toxicity in Charles Foster albino rat assessed as feeding behaviour up to 100 mg/kg, po after 48 hrs. The class given is organism-based. The arrangement: dose 100 mg/kg, route oral. As to conditions: in vivo.
The test system of data set [21] is Rattus norvegicus. The data set can be described thus: In vivo inhibition of AChE-mediated substrate hydrolysis in Charles Foster albino rat prefrontal cortex at 5 to 10 mg/kg, po administered for 8 days measured 1 hr post last dose. In kind it is functional, organism-based.
Data set [22] has as its system Rattus norvegicus. Briefly: Acute toxicity in Charles Foster albino rat assessed as pulse rate up to 100 mg/kg, po after 48 hrs. The arrangement: dose 100 mg/kg, route oral. The class given is organism-based. As to conditions: in vivo.
For data set [23], the target named is T2, Acetylcholinesterase. Briefly: Non-competitive inhibition of electric eel AChE using […] as substrate by Lineweaver-Burk plot analysis.
Data set [24] has as its target T1, Cholinesterase. The data set can be described thus: Competitive inhibition of human serum BChE using butyrylthiolcholine iodide as substrate by Lineweaver-Burk plot analysis.

T2 sequence (O42275 whole entry): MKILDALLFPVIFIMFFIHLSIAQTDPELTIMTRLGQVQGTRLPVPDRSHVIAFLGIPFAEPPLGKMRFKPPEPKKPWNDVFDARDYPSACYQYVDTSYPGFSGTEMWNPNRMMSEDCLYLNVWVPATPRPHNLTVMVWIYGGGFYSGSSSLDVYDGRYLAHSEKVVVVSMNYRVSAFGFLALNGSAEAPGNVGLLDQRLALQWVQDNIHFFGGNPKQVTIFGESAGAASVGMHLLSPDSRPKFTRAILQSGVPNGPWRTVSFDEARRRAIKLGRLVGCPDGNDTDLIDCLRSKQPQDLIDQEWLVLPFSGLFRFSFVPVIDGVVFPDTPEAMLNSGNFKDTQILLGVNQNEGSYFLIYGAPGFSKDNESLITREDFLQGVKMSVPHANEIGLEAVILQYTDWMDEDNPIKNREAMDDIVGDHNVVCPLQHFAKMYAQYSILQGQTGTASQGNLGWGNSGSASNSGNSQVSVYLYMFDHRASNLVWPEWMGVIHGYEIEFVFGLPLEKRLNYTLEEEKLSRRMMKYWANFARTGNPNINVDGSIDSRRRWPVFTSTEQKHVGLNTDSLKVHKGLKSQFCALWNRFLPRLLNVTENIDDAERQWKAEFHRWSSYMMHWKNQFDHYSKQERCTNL

For `O=C(O)/C=C\C(=O)Nc1ccncc1`, the Activity result in data set [1] is “Dose-dependent effect”; in [3] it was “Non-toxic”; in [4] it was “Non-toxic”; in data set [6], “Non-toxic”; in data set [8] it was “Non-toxic”; in data set [9] it was “Non-toxic”. The Activity entry in [10], in [12], in [13], in data set [19], in [20] and in [22] was “Non-toxic” in each case. Besides, the inhibition result in [2], in data set [5] and in [21] was “Active” throughout. The Time in [7] was 72.5 s; in data set [15], 75.33 s; in [17] it was 80.5 s; in data set [18], 77.67 s. Further, the results for the pIC50 in [11] and in data set [16] were 3.18 and 4.31, respectively. Further, in data set [14], the Ratio IC50 turned out to be 13.5.
For `O=C1CCC(=O)N1c1ccncc1`, the Activity entry in [1] is “Dose-dependent effect”; in data set [3], “Non-toxic”; in data set [4] it was “Non-toxic”; in data set [6], “Non-toxic”; in [8], “Non-toxic”; in data set [9], “Non-toxic”. Besides, the Activity result in data set [10], in data set [12], in [13], in [19], in [20] and in [22] was “Non-toxic” each time. In addition, the inhibition result in [2], in [5] and in [21] was “Active” throughout. Further, the Time in [7] is recorded as 58.33 s; in [15], 60.67 s; in data set [17] it was 66.83 s; in data set [18], 65.5 s. The pIC50 in data set [11] was 5.42; in data set [16], 6.31. For the same compound, in [14], the Ratio IC50 came to 7.79.
In the case of `O=C(O)CCC(=O)Nc1ccncc1`, the Activity entry in data set [1] is “Dose-dependent effect”; in [3], “Non-toxic”; in [4], “Non-toxic”; in [6], “Non-toxic”; in data set [8], “Non-toxic”; in data set [9], “Non-toxic”. For the same compound, the Activity entry in [10], in data set [12], in data set [13], in data set [19], in data set [20] and in data set [22] was “Non-toxic” each time. Besides, the inhibition result in data set [2], in data set [5] and in data set [21] was “Active” each time. The Time in data set [7] came out at 70 s; in data set [15], 71.67 s; in [17], 77.67 s; in [18], 74.83 s. Moreover, the pIC50 was 4.25 in [11] and 4.39 in [16]. The Ratio IC50 in [14] amounted to 1.39.
As for `O=C1C=CC(=O)N1c1ccncc1`, the figures for the pKi in data set [23] and in data set [24] were 7.38 and 4.81, respectively. The Activity result was “Dose-dependent effect” in data set [1]; “Non-toxic” in [3]; “Non-toxic” in [4]; “Non-toxic” in [6]; “Non-toxic” in data set [8]; “Non-toxic” in data set [9]. Further, the Activity entry in data set [10], in [12], in [13], in data set [19], in [20] and in data set [22] was “Non-toxic” in each case. For the same compound, the inhibition result in data set [2], in data set [5] and in [21] was “Active” throughout. Further, the Time in data set [7] was determined as 53.83 s; in data set [15], 56.33 s; in data set [17] it was 64.67 s; in data set [18] it was 61.33 s. Besides, the pIC50 in data set [11] was 4.96; in data set [16], 7.52. For the same compound, the Ratio IC50 in data set [14] is 367.
